Measurements: paper PMC2585998 (Molecular cell, 2008)

Molecular target: SpoIVA (IVA; His6-SpoIVA) (Bacillus subtilis, UniProt P35149, K30A)
Assay: ATPase, ADP production by TLC of alpha-32P-ATP
Assay type: biochemical
Conditions: Walker A mutant, diminished hydrolysis; 10 mM MgCl2, pH 7.5, 37 C

Sequence of SpoIVA (IVA; His6-SpoIVA) (P35149 whole entry K30A): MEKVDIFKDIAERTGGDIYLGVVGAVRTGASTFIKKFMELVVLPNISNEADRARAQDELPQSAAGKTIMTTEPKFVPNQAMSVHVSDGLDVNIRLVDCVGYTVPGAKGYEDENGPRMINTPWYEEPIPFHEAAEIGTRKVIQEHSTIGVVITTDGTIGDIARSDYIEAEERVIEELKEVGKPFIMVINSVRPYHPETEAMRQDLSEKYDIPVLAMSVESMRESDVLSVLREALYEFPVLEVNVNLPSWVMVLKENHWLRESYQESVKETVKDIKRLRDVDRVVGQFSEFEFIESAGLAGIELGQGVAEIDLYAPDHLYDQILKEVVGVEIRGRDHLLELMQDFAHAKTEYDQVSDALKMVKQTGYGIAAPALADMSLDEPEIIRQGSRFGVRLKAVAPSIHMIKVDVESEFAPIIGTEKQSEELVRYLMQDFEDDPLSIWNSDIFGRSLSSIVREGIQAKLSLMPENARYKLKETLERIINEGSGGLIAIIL

Nc1ncnc2c1ncn2[C@@H]1O[C@H](COP(=O)(O)OP(=O)(O)OP(=O)(O)O)[C@@H](O)[C@H]1O [ATP]
ATPase, ADP production by TLC of alpha-32P-ATP: Incubation of ATP with IVA^K30A, in contrast, led to the diminished accumulation of ADP
